Measured values taken from BigSolDB 2.1.

CO/N=C(\C(=O)N[C@@H]1C(=O)N2C(C(=O)O)=C(CSC(=O)c3ccco3)CS[C@H]12)c1csc(N)n1.Cl
Details	solubility (mole fraction)
in acetone, 283.36 K	1e-05
in acetone, 288.2 K	1.6e-05
in acetone, 293.15 K	2.7e-05
in acetone, 298.05 K	4.3e-05
in acetone, 302.87 K	7e-05
in acetone, 307.65 K	0.00011
in acetone, 313.45 K	0.000193
in acetone, 318.4 K	0.000313
in acetone, 322.35 K	0.000478
in ethanol, 283.35 K	0.00178
in ethanol, 288.15 K	0.00192
in ethanol, 293.15 K	0.00209
in ethanol, 298.15 K	0.00233
in ethanol, 303.1 K	0.00262
in ethanol, 307.95 K	0.00292
in ethanol, 313.55 K	0.00335
in ethanol, 318.75 K	0.00384
in ethanol, 322.65 K	0.00421
in isopropanol, 283.2 K	0.000235
in isopropanol, 288.2 K	0.000255
in isopropanol, 293.15 K	0.000311
in isopropanol, 298.15 K	0.000402
in isopropanol, 303.05 K	0.000535
in isopropanol, 308 K	0.000649
in isopropanol, 312.8 K	0.000793
in isopropanol, 318.45 K	0.001
in isopropanol, 324.35 K	0.00134
in methanol, 283.25 K	0.00952
in methanol, 288.25 K	0.00992
in methanol, 293.15 K	0.0105
in methanol, 297.85 K	0.0112
in methanol, 300.55 K	0.0116
in methanol, 307.35 K	0.0127
in methanol, 313.3 K	0.0137
in methanol, 317.95 K	0.0148
in methanol, 320.65 K	0.0155
in n-propanol, 283.55 K	0.000534
in n-propanol, 288.55 K	0.000573
in n-propanol, 293.35 K	0.000646
in n-propanol, 298.35 K	0.000717
in n-propanol, 303.35 K	0.000802
in n-propanol, 308.05 K	0.000922
in n-propanol, 312.95 K	0.00103
in n-propanol, 317.95 K	0.00117
in n-propanol, 322.75 K	0.00135
